The source of these data is patent publication US4932871A, “Rapid method for preparing chromogenic alpha-amylase substrate compounds at high preparative yields” (Miles Inc., priority 1987, dated 1990).

One series concerns β-D-glucosidase. Put plainly: Hydrolysis of the glucoside substrate by β-D-glucosidase (Kcat, Km). As to conditions: 50 mM phosphate buffered solution (pH 7.4) containing 5.0 mM MgCl2. The class given is biochemical.
A short description of series [1]: Solubility in phosphate buffered solution. The class given is physicochemical. As to conditions: phosphate buffered solution (pH 7.4). The text has this:
The resulting glucoside has an absorbance (λmax) of 438 nm (yellow), an extinction coefficient of 27,400, and is soluble in a phosphate buffered solution (pH 7.4). […] Accordingly, such compound provides a very advantageous substrate for a secondary enzyme, such as β-D-glucosidase, in an assay system for α-amylase.

In series [2] the test system is α-amylase. Put plainly: Liquid analytical test system for the detection of α-amylase (DMA-G7, α-glucosidase, β-glucosidase). The class given is biochemical. As to conditions: average of three consecutive readings between 3 and 6 minutes. On the procedure:
A liquid α-amylase detection reagent was prepared by combining 1.8 mM DMA-G7 prepared according to Example 2, 38 units of α-glucosidase and 20 units of β-glucosidase in 1.0 mL of buffered solution comprising 50 mM PIPES, 50 mM NaCl, and 5.0 mM calcium chloride (pH 7.0). Amylase control serum (0.025 mL) containing 37 IU/L, 175 IU/L, and 313 IU/L, respectively, of α-amylase were added to the detection reagent, independently, and incubated at 37° C. The enzymatic action of α-amylase on the substrate compound in each of the mixtures liberated the shorter chain chromogenic maltooligosaccharide compounds thereof (e.g., DMA-G2 to DMA-G4) which, in turn, were enzymatically acted upon by the α-glucosidase and β-glucosidaseto liberate the optically active form or anion of the 7-hydroxy-9,9-dimethyl- 9H-acridin-2-one chromogen. The rate of color change produced by the liberated chromogen in each of the mixtures was measured at 634 nm on a Cary 219 spectrophotometer (Varian Associates, Inc., Sonnyvale, Calif., USA) from between 1 and 9 minutes after each of the serum samples were added to the detection reagent (Table 2/FIG. 4).

The test system of series [3] is α-amylase. Description: Analytical test device for the detection of α-amylase (filter paper impregnated with DMA-G7 reagent). The class given is biochemical. As to conditions: between 180 and 200 seconds, three aliquots. On the procedure:
A sheet of Whatman 54 filter paper (Whatman, Inc., Clifton, N.J., USA) was immersed into a solution comprising the liquid α-amylase detection reagent prepared according to Example 3, 0.1% Triton X-100 (Sigma Chemical Co., St. Louis, Mo., USA) and 0.5% carboxycellulose, and dried.
Analytical test devices were prepared by mounting 0.5 cm wide ×1.0 cm long segment of the aforementioned impregnated filter paper onto and along the edge of one surface of 0.5 cm×8.125 cm polystyrene supports (Tricite®, Dow Chemical Co., Midland, Mich., USA) previously laminated with a 2 mm strip of Double Stick® double-faced adhesive tape (3M Company, St. Paul, Minn., USA).
Three 30 μL aliquots of undiluted serum containing 39 IU/L, 78 IU/L, 117 IU/L, 157 IU/L, 235 IU/L, and 313 IU/L, respectively, of α-amylase were applied, independently, to a test device and the rate of color change produced by the liberated chromogen on each device was measured at 630 nm on a Seralyzer® reflectance photometer (Miles Inc., Elkhart, Ind., USA) from between 0 seconds and 240 seconds after the serum sample was added to each test device.

Where “and” joins values, the source holds several entries; their conditions need not be identical. Identical values can stand only once.

`CC1(C)C2=CC(=O)C=CC2=Nc2ccc(O[C@@H]3O[C@H](CO)[C@@H](O)[C@H](O)[C@H]3O)cc21` [DMA-G1, 7-β-D-glucopyranosyloxy-9,9-dimethyl-9H-acridin-2-one]: the “rate at which the enzyme cleaves the substrate (Kcat)” value in the series with β-D-glucosidase is 1.32×10^4 mol min.^-1 /mol. active site. Further, the Km (in general, the substrate concentration at which the rate is half of its maximum) in the series with β-D-glucosidase (read-out: binding constant (Km)) turned out to be 170 µM. Also, the solubility entry in series [1] is on record as “soluble”.
Consider `CC1(C)C2=CC(=O)C=CC2=Nc2ccc(O[C@@H]3O[C@H](CO)[C@@H](O[C@H]4O[C@H](CO)[C@@H](O[C@H]5O[C@H](CO)[C@@H](O[C@H]6O[C@H](CO)[C@@H](O[C@H]7O[C@H](CO)[C@@H](O[C@H]8O[C@H](CO)[C@@H](O[C@H]9O[C@H](CO)[C@@H](O)[C@H](O)[C@H]9O)[C@H](O)[C@H]8O)[C@H](O)[C@H]7O)[C@H](O)[C@H]6O)[C@H](O)[C@H]5O)[C@H](O)[C@H]4O)[C@H](O)[C@H]3O)cc21` [DMA-G7, 7-β-maltoheptaosyloxy-9,9-dimethyl-acridin-2-one], for which the “α-amylase reactivity, rate of color change at 634 nm” value is 0.011 Absorbance/Minute in the series on α-amylase [2] (37 IU/L α-amylase), 0.062 Absorbance/Minute in the series on α-amylase [2] (175 IU/L α-amylase) and 0.109 Absorbance/Minute in the series on α-amylase [2] (313 IU/L α-amylase). The “Reactivity (linear regression of L(R), reflectance at 630 nm)” value with α-amylase [3] (39 IU/L α-amylase in undiluted serum) is 0.384 × 10^-2 and 0.373 × 10^-2 and 0.359 × 10^-2; in the series with α-amylase [3] (78 IU/L α-amylase in undiluted serum), 0.957 × 10^-2 and 0.941 × 10^-2 and 0.954 × 10^-2; in the series on α-amylase [3] (117 IU/L α-amylase in undiluted serum) it was 1.450 × 10^-2 and 1.510 × 10^-2 and 1.430 × 10^-2; in the series on α-amylase [3] (157 IU/L α-amylase in undiluted serum) it was 1.781 × 10^-2 and 1.999 × 10^-2 and 1.886 × 10^-2; in the series with α-amylase [3] (235 IU/L α-amylase in undiluted serum) it was 2.560 × 10^-2 and 2.596 × 10^-2 and 2.610 × 10^-2; in the series with α-amylase [3] (313 IU/L α-amylase in undiluted serum), 2.961 × 10^-2 and 2.989 × 10^-2 and 2.916 × 10^-2.
With `CC1(C)C2=CC(=O)C=CC2=Nc2ccc(O)cc21` [liberated chromogen anion, 7-hydroxy-9,9-dimethyl-9H-acridin-2-one], the solubility result in series [1] is listed as “soluble”.
